Legend:
[1] = test system: B2M gene; assay: B2M reactivation by DNMT1 inhibitor 5-azadC in transfected HEK293T cells cultured for 58 days; type: cell-based, human; settings: HEK293T transfected with construct + B2M-targeting gRNA; 0 to 20 μM 5-azadC
From the text: LTRP configuration 5 containing the ZIM3-KRAB domain, which was generated as described in Example 1, and CasX variant 491 were used in this experiment. A B2M-targeting gRNA with scaffold 174 containing spacer 7.37 (SEQ ID NO: 1904) or a non-targeting gRNA containing spacer 0.0 (SEQ ID NO: 1906) were used in this experiment.

[2] = test system: human PCSK9 locus; assay: Secreted PCSK9 dose response (IC50, IC90, Emax) in primary human hepatocytes treated with LNPs; type: cell-based; settings: day 5
Experimental: PCSK9 knockdown in primary human hepatocytes, provided an experimental basis for lipofection of gRNA comprising one of the four top editing targeting sequences (Table 59) into PHH cells for assessment of PCSK9 secretion and mRNA reduction. Dose response curves were generated from two lots of PHH cells with three rounds of triplicate wells for each condition. The highest tested dose, 2400 ng/well total encapsulated RNA, was used to measure mRNA expression changes between treated and naïve cells via RNA-seq.
Two lots (lot #271 and lot #31) of primary human hepatocytes (Lonza Biologics) were plated at density of 65K cells/well. Twenty-four hours later, plates were stamped with the indicated total encapsulated RNA dose of single formulations ALC-0315 LNP (1:1 ratio, pre-incubated with human serum overnight) at the indicated dose in triplicate wells for each condition. Doses tested for each mRNA:gRNA pair (Table 60) were 2400, 800, 270, 90, 30, 10, 0.1, and 0.01 ng/well total encapsulated RNA. […]
Secreted PCSK9 levels in the media supernatant were analyzed using the BioLegend® ELISA MAX™ kit following the manufacturer's instructions.
(§1) The ability of pairs of mRNA:gRNA comprising scaffold 316 and an PCSK9-targeting sequence to reduce secretion of PCSK9 and PCSK9 mRNA reduction was assessed. […]

[3] = test system: PCSK9 mRNA; assay: PCSK9 mRNA RT-qPCR dose response (IC50, IC90, Emax) in primary human hepatocytes treated with LNPs; type: cell-based; settings: day 5
Experimental: Two lots (lot #271 and lot #31) of primary human hepatocytes (Lonza Biologics) were plated at density of 65K cells/well. Twenty-four hours later, plates were stamped with the indicated total encapsulated RNA dose of single formulations ALC-0315 LNP (1:1 ratio, pre-incubated with human serum overnight) at the indicated dose in triplicate wells for each condition. Doses tested for each mRNA:gRNA pair (Table 60) were 2400, 800, 270, 90, 30, 10, 0.1, and 0.01 ng/well total encapsulated RNA.
For rounds 1 and 2, cells were immediately lysed in 100 uL DNA RNA shield™ and stored at […] after the day 5 media collection.
Extracted mRNA was processed and analyzed by RT-qPCR. Measurement ofPCSK9 mRNA expression is performed using a single-step RT-qPCR approach. 50 uL lysate was used to extract total RNA using Zymo 96 RNA extraction kits. Total RNA was then reverse transcribed into cDNA and PCSK9 transcript quantified in reference to a GAPDH endogenous control by quantitative PCR using TaqMan probes. Percent change in mRNA was calculated by comparing to samples treated with a non-targeting sequence.
as §1

[4] = test system: human PCSK9 locus; assay: Secreted PCSK9 ELISA in Huh7 cells transfected with mRNA and gRNA; type: cell-based; settings: for normalized secreted PCSK9 level: days 6, 18, 36
Experimental: The following three human hepatocyte cancer cell lines were used in this experiment: HepG2 cells, Hep3B cells, and Huh7 cells. ~15,000 cells of each cell line were seeded in each well of a 96-well plate. The next day, seeded cells were transfected with mRNA encoding a catalytically-active CasX 676, dXR1, or LTRP5-ADD-ZIM3 and a gRNA with scaffold 316 and spacer targeting either the B2M or PCSK9 locus (see Table 12 for specific spacers and sequences). Media supernatant was harvested at 4 days post-transfection to assess level of PCSK9 secretion by ELISA, and levels of PCSK9 secretion were normalized to total cell count, as illustrated in FIGS. 2A-2C. Culturing of treated Huh7 cells continued, and media supernatant was harvested at 14 and 27 days post-transfection for measuring PCSK9 secretion by ELISA. As an additional experimental control, PCSK9 secretion was also measured in the media supernatant harvested from wells containing untreated, naïve cells.
To assess PCSK9 secretion, seeded Huh7 cells were transfected with mRNA encoding a catalytically-active CasX 676, dXR1, or LTRP5-ADD-ZIM3 and a gRNA with scaffold 316 and a spacer targeting either the B2M or PCSK9 locus. Media supernatant was harvested at 6, 18, and 36 days post-transfection to assess level of PCSK9 secretion by ELISA. Levels of PCSK9 secretion were normalized to total cell count. As an additional control, PCSK9 secretion was also measured in the media supernatant harvested from wells containing untreated, naïve cells.

[5] = test system: mouse PCSK9 locus; assay: Intracellular PCSK9 staining by flow cytometry in Hepa1-6 cells lipofected with mRNA and PCSK9-targeting gRNA; type: cell-based
Experimental: Transfection of mRNA and gRNA into Hepa1-6 cells and intracellular PCSK9 staining were performed as described in Example 6. Briefly, each well of seeded Hepa1-6 cells was transfected with 300 ng of mRNA encoding LTRP5-ZIM3 or LTRP5-ADD-ZIM3 and 150 ng of PCSK9-targeting gRNA with spacer 27.88 or 27.94. Intracellular levels of PCSK9 protein were measured at various timepoints, up to day 53 post-transfection using an intracellular staining protocol as described earlier in Example 6. A non-targeting gRNA was used as an experimental control.
Seeded Hepa1-6 cells treated with the NATE™ inhibitor were lipofected with 300 ng of mRNA encoding dXR1 or LTRP1-ZIM3 (Table 36) and 150 ng of a PCSK9-targeting gRNA (Table 37). Seven different gRNAs with spacers spanning the promoter region of the mouse PCSK9 locus were tested, in addition to a sequence complementary to the human PCSK9 gene that served as the non-targeting control (Table 37). Cells were harvested at 6, 13, and 25 days after transfection to measure intracellular levels of the PCSK9 protein using an intracellular flow cytometry staining protocol. Briefly, cells were fixed using 4% paraformaldehyde in PBS, permeabilized, and stained using a mouse anti-PCSK9 primary antibody (R&D Systems), followed by a fluorescent goat anti-mouse IgG secondary antibody (Thermo Fisher). Fluorescence levels were measured using the Attune™ NxT flow cytometer, and data were analyzed using the FlowJo™ software. Cell populations were gated using the non-targeting gRNA as a negative control.
Seeded Hepa1-6 cells treated with the NATE™ inhibitor were lipofected with 300 ng of mRNA encoding LTRP1-ZIM3, LTRP5-ZIM3, catalytically-active CasX 491, or dCas9-ZNF10-DNMT3A/3L, and 150 ng of PCSK9-targeting gRNA (Table 37). Intracellular levels of PCSK9 protein were measured at day 7, 14, 21, 36, and 71 days post-transfection using an intracellular staining protocol as described for experiment #1.

Nc1ncn([C@H]2C[C@H](O)[C@@H](CO)O2)c(=O)n1 [5-azadC, 5-aza-2′-deoxycytidine]
reactivation of the B2M gene upon 5-azadC treatment [1]: resulted in a reactivation of the B2Mgene

TG-06-154: NHP-conserved TSS-proximal TTC spacer targeting the human PCSK9 locus (Table 40) (guide AGGGUGUGGGUGCUUGACGC; spacer within gRNA, v1 profile: 2'-OMe and phosphorothioate on first and last three gRNA nucleotides, further chemistry not given here)
potency in reducing secreted PCSK9 protein [2]: the most potent LTRP spacer
potency in reducing PCSK9 mRNA levels [3]: the most potent LTRP spacer

TG-06-352: spacer targeting human PCSK9, positioned beyond the 1100 bp threshold window (guide UCCCUCACCAAUUACCCCUC; spacer within gRNA, v1 profile: 2'-OMe and phosphorothioate on first and last three gRNA nucleotides, further chemistry not given here)
normalized secreted PCSK9 level ([4]; Huh7, spacer paired with LTRP5-ADD-ZIM3, compared with spacer 6.1 paired with CasX 676 and controls): effective repression

dXR1: dCasX fused to ZIM3-KRAB; protein SEQ ID NO 2008
degree of PCSK9 repression compared with LTRP1-ZIM3 ([5]; day 6, e.g. spacers 27.92 and 27.100): the degree of repression was less substantial when paired with certain spacers
persistence of PCSK9 repression ([5]; days 6, 13, 25): transient repression
repression of PCSK9 secretion relative to naïve control at day 4 ([4]; Huh7, spacer 6.138, days 4, 14, 27): initial strong repression at day 4, this repressive effect was transient
normalized secreted PCSK9 level ([4]; Huh7, spacer 6.138): transient repression
knockdown of PCSK9 secretion (normalized to total cell count) ([4]; Huh7 compared with HepG2 and Hep3B cells, 4 days post-transfection): most efficient knockdown of PCSK9 secretion

spacer 27.94: gRNA spacer targeting the mouse PCSK9 locus, SEQ ID NO 2014 (guide CCCCUCUUAAUCCCCACUCC; listed as RNA, chemistry not given here)
durability of PCSK9 repression ([5]; paired with LTRP5-ZIM3 or LTRP5-ADD-ZIM3 mRNA, day 53): more durable repression than use of spacer 27.88

— patent US20260240958A1, “REPRESSOR FUSION PROTEIN SYSTEMS” (Scribe Therapeutics Inc., priority 2023, published 2026)
